Data taken from publication PMC10571751, “Polyarginine Cell-Penetrating Peptides Bind and Inhibit SERCA2” (Cells, 2023).
Where no end group is shown, it is not given here. The star is where a group is joined. Biotin = O=C1N[C@H]2[C@H](CS[C@H]2CCCCC(=O)*)N1

What was measured:
[1] = test system: rat left ventricular cardiomyocytes; assay: Field-stimulated whole-cell Ca2+ transients in isolated rat cardiomyocytes; assay type: cell-based, rat (Wistar); details: versus untreated Ctr, 5 µmol/L, 1 h preincubation, 1 Hz, 37 °C
From the text: For single cell experiments, rat left ventricular cardiomyocytes were isolated as described previously. In brief, rats were anaesthetized by inhalation of a mixture of 5% isoflurane and 95% O2. Hearts were then rapidly excised and mounted via the aorta on a Langendorff apparatus to enable retrograde perfusion with buffer containing collagenase Type II (Worthington Biochemical Corporation, Lakewood, NJ, USA). Following digestion, the heart was cut down, diced, and agitated, and isolated cardiomyocytes were then filtered, washed, and sedimented. Cells were stored in a solution containing (in mmol/L) 130 NaCl, 5.4 KCl, 25 HEPES, 0.5 MgCl2, 0.4 NaH2PO4, 22 glucose, 0.2 CaCl2 (pH 7.40, 22 °C) until use, within 6 h of isolation.
Prior to experiments, cardiomyocytes were preincubated for 1 h with 5 µmol/L of the individual CPPs added to the cell storage solution. During the last 10 min of incubation, cells were additionally loaded with fluo-4 AM (5 µmol/L, Thermo Fisher Scientific, Waltham, MA, USA) for Ca^2+ imaging. The cells were then plated on the stage of an inverted microscope and perfused with HEPES-Tyrode solution containing (in mmol/L) 140 NaCl, 0.5 MgCl2, 5.0 HEPES, 5.5 glucose, 0.4 NaH2PO4, 5.4 KCl, and 1.8 CaCl2 at pH 7.4, 37 °C. Whole-cell Ca^2+ transients were recorded by wide-field photometry, as described previously, using a D-104 microscope photometer and photomultiplier tube (Horiba Ltd., Kyoto, Japan). During field stimulation at 1 Hz, fluorescence was excited by a 475 nm light-emitting diode, and emission was collected at >510 nm.
Ca^2+ signals were analysed by first subtracting background fluorescence values from the cellular recordings. Ca^2+ transient magnitude was calculated as peak fluorescence divided by resting fluorescence (F/F0). The decay time of Ca^2+ transients was assessed using a monoexponential fit of the declining phase of the Ca^2+ transient to calculate tau (s), using Clampfit 10.4 software (Molecular Devices LLC, Sunnyvale, CA, USA).

[2] = test system: SERCA (SR vesicles from left ventricle of PLB knockout mice); assay: Oxalate-supported SR Ca2+ uptake and leak in left ventricular homogenates of phospholamban knockout mice; assay type: biochemical, mouse (phospholamban knockout); details: 40 µmol/L CPP without cargo, 5 min, 37 °C, pH 7.0; nruns Ctr, TAT, Arg9, Arg11 = 58, 12, 17, 15
From the text: (§1) Ca^2+ handling was also examined in homogenates prepared from mouse left ventricle, rat soleus, and rat extensor digitorum longus (EDL) muscles using methods described by O’Brien and modified by Li et al.. Freshly excised left ventricles and muscles were weighed and homogenized in ice cold homogenization buffer (1:10 wet weight/vol, pH 7.9) containing (in mmol/L) 300 sucrose, 5 NaN3, 1 EDTA, 40 L-histidine, 40 Tris HCl, and protease inhibitors (Complete EDTA-free No 05056489001, Roche, Mannheim, Germany). Homogenization was performed with a Polytron 1200 (Kinematica AG, Luzern, Switzerland) at 25,000 rpm for 3 × 20 s, with a 20 s break between bursts. Homogenates were then aliquoted, frozen in liquid N2, and stored at −80 °C until use.
(§2) 10–20 µL of freshly thawed and vortexed homogenate was added to 250 µL of “assay” buffer, containing (in mmol/L) 165 KCl, 22 Hepes, 7.5 oxalate, 11 NaN3, 0.0055 TPEN, 4.5 MgCl2, 9 Tris HCl, and 0.002 Fura-2 salt (pH 7.0, 37 °C). […]
(§3) Ca^2+ fluxes were monitored as Fura-2 fluorescence ratio (340 nm/390 nm) using a Hidex Sense Multimodal Microplate Reader (Kem-En-Tec Nordic AS, Uppsala, Sweden). […] The fluorescence ratio was calibrated to [Ca^2+] using the following equation: [Ca^2+] = Kd × ((R − Rmin)/(Rmax − R)) × (Sf2/Sb2), where R is the 340 nm/390 nm fluorescence ratio, and Kd is the dissociation constant of Fura-2 and Ca^2+ (224 nmol/L). Rmin is the fluorescence ratio at very low [Ca^2+] and Rmax is the ratio at saturating [Ca^2+], obtained by sequentially adding 3.3 mmol/L EGTA and 4.8 mmol/L CaCl2 to the well at the end of each recording. Sf2/Sb2 is the ratio of measured fluorescence intensity at 390 nm when Fura-2 is Ca^2+-free (3.3 mmol/L EGTA) or Ca^2+-bound (4.8 mmol/L CaCl2).
(§4) Ca^2+ recordings were smoothed using TableCurve 2D (V 5.01, Systat Software Inc., Palo Alto, CA, USA) prior to analysis. After the addition of Na4ATP, the rate constant for Ca^2+ uptake (k) was calculated by fitting the uptake curve to Ca^2+ = Ca^2+0 + ae^−t×k (Sigmaplot V14.0, Systat Software Inc.). […]

rat SERCA3 = assay: Oxalate-supported Ca2+ uptake in homogenates of HEK293 cells transfected with SERCA3; assay type: biochemical; details: nruns Ctr, Arg9, Arg11 = 4, 5, 5
Experimental: (§5) 10–20 µL of freshly thawed and vortexed homogenate was added to 250 µL of “assay” buffer, containing (in mmol/L) 165 KCl, 22 Hepes, 7.5 oxalate, 11 NaN3, 0.0055 TPEN, 4.5 MgCl2, 9 Tris HCl, and 0.002 Fura-2 salt (pH 7.0, 37 °C). Each CPP was added to attain a final concentration of 40 µmol/L and incubated for 5 min at 37 °C prior to experiments.
as §3, with “Sweden). Ca^2+ uptake by the vesicles was initiated by the addition of Na4ATP (2.2 mmol/L) and blocked by the application of thapsigargin (1.5 µmol/L) after 12 min [16].” for “Sweden).”, “CaCl2). […]” for “CaCl2).”

[3] = test system: SERCA (SR vesicles from mouse left ventricle; SERCA2a); assay: Oxalate-supported SR Ca2+ uptake and leak in mouse left ventricular homogenates (wild-type); assay type: biochemical, mouse (C57BL/6NT); details: 40 µmol/L CPP without cargo, 5 min, 37 °C, pH 7.0; uptake started with Na4ATP; Fura-2 340/390; nruns Ctr, TAT, Arg9, Arg11 = 69, 14, 23, 24
From the text: as §1, §2, §3, §4

[4] = test system: SERCA (rat soleus homogenates; SERCA2a); assay: Oxalate-supported Ca2+ uptake, leak and releasable Ca2+ in rat soleus homogenates; assay type: biochemical, rat (Wistar); details: 40 µmol/L CPP without cargo, 5 min, 37 °C, pH 7.0; nruns Ctr, TAT, Arg9, Arg11 = 6, 5, 6, 6
From the text: as §1, §2, §3, §4

rat SERCA1 = assay: Oxalate-supported Ca2+ uptake in homogenates of HEK293 cells transfected with SERCA1; assay type: biochemical; details: nruns Ctr, Arg9, Arg11 = 4, 5, 5
Experimental: as §5
as §3, with “Sweden). Ca^2+ uptake by the vesicles was initiated by the addition of Na4ATP (2.2 mmol/L) and blocked by the application of thapsigargin (1.5 µmol/L) after 12 min [16].” for “Sweden).”, “CaCl2). […]” for “CaCl2).”

rat SERCA2b = assay: Oxalate-supported Ca2+ uptake in homogenates of HEK293 cells transfected with SERCA2b; assay type: biochemical; details: for Ca2+ uptake, SERCA2b-transfected cells, versus untreated: nruns Ctr, Arg9, Arg11 = 12, 12, 12
Experimental: as §5
(§6) Ca^2+ fluxes were monitored as Fura-2 fluorescence ratio (340 nm/390 nm) using a Hidex Sense Multimodal Microplate Reader (Kem-En-Tec Nordic AS, Uppsala, Sweden). Ca^2+ uptake by the vesicles was initiated by the addition of Na4ATP (2.2 mmol/L) and blocked by the application of thapsigargin (1.5 µmol/L) after 12 min [16]. SR Ca^2+ content, i.e., the “releasable Ca^2+” was estimated by adding the ryanodine receptor opener 4-Chloro-m-cresol (CmC, 5.5 mmol/L). The fluorescence ratio was calibrated to [Ca^2+] using the following equation: [Ca^2+] = Kd × ((R − Rmin)/(Rmax − R)) × (Sf2/Sb2), where R is the 340 nm/390 nm fluorescence ratio, and Kd is the dissociation constant of Fura-2 and Ca^2+ (224 nmol/L). Rmin is the fluorescence ratio at very low [Ca^2+] and Rmax is the ratio at saturating [Ca^2+], obtained by sequentially adding 3.3 mmol/L EGTA and 4.8 mmol/L CaCl2 to the well at the end of each recording. Sf2/Sb2 is the ratio of measured fluorescence intensity at 390 nm when Fura-2 is Ca^2+-free (3.3 mmol/L EGTA) or Ca^2+-bound (4.8 mmol/L CaCl2).
as §4, with “Inc.). Ca^2+ leak from the vesicles was calculated as the linear rise (slope) of the Ca^2+ signal after blockade of SERCA by thapsigargin. Leak measurements were normalized to SR content, determined as the peak [Ca^2+] after addition of CmC.” for “Inc.).”

rat SERCA2a = assay: Oxalate-supported Ca2+ uptake in homogenates of HEK293 cells transfected with SERCA2a; assay type: biochemical; details: for Ca2+ uptake, SERCA2a-transfected cells, versus untreated: nruns Ctr, Arg9, Arg11 = 12, 16, 16
Experimental: as §5, §6
as §4, with “Inc.). Ca^2+ leak from the vesicles was calculated as the linear rise (slope) of the Ca^2+ signal after blockade of SERCA by thapsigargin. Leak measurements were normalized to SR content, determined as the peak [Ca^2+] after addition of CmC.” for “Inc.).”

[5] = test system: SERCA (rat EDL homogenates; SERCA1); assay: Oxalate-supported Ca2+ uptake, leak and releasable Ca2+ in rat EDL homogenates; assay type: biochemical, rat (Wistar); details: 40 µmol/L, 5 min, 37 °C, pH 7.0; without (Figure 4B) and with cargo (Figure 4D)
From the text: as §1, with “use. […]” for “use.”
as §3, with “Sf2/Sb2 is the ratio of measured fluorescence intensity at 390 nm when Fura-2 is Ca^2+-free (3.3 mmol/L EGTA) or Ca^2+-bound (4.8 mmol/L CaCl2).” left out

12xHis-SERCA2(111-253) = biological target: T1, 12xHis-SERCA2(111-253) (UniProt P16615 111-253); assay: SPR; Biacore X100; biotinylated Arg11 immobilised on an SA chip at 744.3 RU; 12xHis-SERCA2(111-253) injected at 0.7–200 nM, 0.19–50 nM or 12.5–200 nM, 30 µL/minute for 180 s; dissociation 600 or 1000 s; 1 × Biacore running buffer; one-to-one Langmuir model; details: both partners purified
T1 construct: also called recombinant SERCA2 polypeptide containing the A-domain; actuator domain of SERCA2; source: recombinant, generated by Genscript; dialysed into Biacore running buffer for SPR
T1 sequence (P16615 111-253): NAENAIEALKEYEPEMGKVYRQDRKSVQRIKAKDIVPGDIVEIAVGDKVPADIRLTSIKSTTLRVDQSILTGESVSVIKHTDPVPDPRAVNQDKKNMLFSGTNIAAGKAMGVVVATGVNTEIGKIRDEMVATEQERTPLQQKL

| Molecule | effect on Ca2+ transient decay (tau), in words [1] | increase in tau value for Ca2+ removal (Ca2+ transient decay) ([1]; p = 0.021, ncells Ctr 37, Arg11 31, 4 hearts) [%] | Ca2+ uptake, PLB knockout, effect versus untreated control [2] | Ca2+ uptake rate, SERCA3-transfected cells, versus untreated (rat SERCA3) | Ca2+ uptake rate, effect versus untreated control [3] | Ca2+ uptake rate in soleus, effect versus untreated control [4] | Ca2+ uptake rate, SERCA1-transfected cells, versus untreated (rat SERCA1) | inhibition of Ca2+ uptake compared with Arg9, SERCA2b (rat SERCA2b; comparison Arg11 versus Arg9) | Ca2+ uptake, SERCA2b-transfected cells, versus untreated (rat SERCA2b) | inhibition of Ca2+ uptake compared with Arg9, SERCA2a (rat SERCA2a; comparison Arg11 versus Arg9) | Ca2+ uptake, SERCA2a-transfected cells, versus untreated (rat SERCA2a) | Ca2+ uptake rate in EDL, effect versus untreated control [5] | Kd (12xHis-SERCA2(111-253)) [nM] | koff (12xHis-SERCA2(111-253)) [s⁻¹] | kon (12xHis-SERCA2(111-253)) [M⁻¹ s⁻¹] |
| --- | --- | --- | --- | --- | --- | --- | --- | --- | --- | --- | --- | --- | --- | --- | --- |
| RRRRRRRRRRR [Arg11] | slowing of Ca^2+ transient decay | 14 | tending to cause the most marked inhibition of Ca^2+ uptake | Neither Arg9 nor Arg11 altered the Ca^2+ uptake rate | marked slowing of Ca^2+ uptake | most marked effect | Neither Arg9 nor Arg11 altered the Ca^2+ uptake rate | tended to be more marked than that induced by Arg9 | significantly slowed Ca^2+ uptake | tended to be more marked than that induced by Arg9 | significantly slowed Ca^2+ uptake | – | – | – | – |
| RRRRRRRRR [Arg9] | No such effects were noted | – | lesser but statistically significant inhibition | Neither Arg9 nor Arg11 altered the Ca^2+ uptake rate | slowed Ca^2+ uptake, albeit to a lesser extent than Arg11 | lesser but statistically significant inhibition | Neither Arg9 nor Arg11 altered the Ca^2+ uptake rate | – | significantly slowed Ca^2+ uptake | – | significantly slowed Ca^2+ uptake | – | – | – | – |
| RKKRRQRRR [TAT, reference compound] | No such effects were noted | – | did not observe inhibition of SERCA2 activity | – | no significant effect | did not alter the rate of Ca^2+ uptake | – | – | – | – | – | did not observe inhibition of SERCA2 activity | – | – | – |
| Biotin-RRRRRRRRRRR (polyarginine cell-penetrating peptide of 11 arginines; Peptides were synthesized with or without the N-terminal biotin; ELISA and SPR used the biotinylated form; also called biotinylated Arg11; polyarginine CPP; source: synthetic peptide (GenScript Biotech Corp, >80% purity)) [biotin-Arg11] | – | – | – | – | – | – | – | – | – | – | – | – | 0.4 | 6.6e-05 | 210000 |
